# Source: patent publication US6204293A, “Inhibitors of protein isoprenyl transferases” (University of Pittsburgh, priority 1998, dated 2001)
# Structures can show the parent of a compound that is named as a salt.
# Target: T1, Rat brain protein farnesyltransferase (Rattus norvegicus, UniProt Q02293+Q04631)
# T1 construct: Rat brain protein farnesyltransferase activity is measured; from tissue; host or cells: rat brain
# Assay: % inhibition of farnesylation, scintillation proximity assay with biotin-K Ras B fragment
# Format: biochemical
# Conditions: Table 2; 1 × 10^-6 M
# Summary of the method: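 Rat brain enzyme, purified through three steps, in a scintillation proximity assay kit with biotin-K Ras B fragment substrate at 0.1 mM final. Value is % inhibition of farnesylation.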
# T1 sequence (Q02293 whole entry, one chain of several): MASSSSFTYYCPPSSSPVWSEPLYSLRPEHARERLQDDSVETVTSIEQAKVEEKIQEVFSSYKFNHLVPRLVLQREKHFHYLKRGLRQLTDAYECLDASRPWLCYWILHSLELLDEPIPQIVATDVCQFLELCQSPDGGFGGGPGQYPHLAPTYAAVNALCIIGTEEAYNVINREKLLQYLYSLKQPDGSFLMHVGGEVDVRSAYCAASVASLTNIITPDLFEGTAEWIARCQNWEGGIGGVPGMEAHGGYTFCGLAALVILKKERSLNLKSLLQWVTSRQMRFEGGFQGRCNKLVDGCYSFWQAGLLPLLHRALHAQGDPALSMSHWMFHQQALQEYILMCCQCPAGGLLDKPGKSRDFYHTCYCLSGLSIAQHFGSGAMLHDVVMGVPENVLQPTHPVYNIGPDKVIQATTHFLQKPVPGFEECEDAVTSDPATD
row,% inhibition at 1 × 10^-6 M [%],SMILES
1,62,CSCC[C@H](NC(=O)c1ccc(CN2CCN(C(=O)OC(C)(C)C)CC2)cc1-c1ccccc1C)C(=O)O [Example 866]
2,95,CSCC[C@H](NC(=O)c1ccc(CN(Cc2cncs2)S(C)(=O)=O)cc1-c1ccccc1C)C(=O)O [Example 878]
3,88,CSCC[C@H](NC(=O)c1ccc(CN(CC(C)C)C(CC2CCCCC2)CC2CCCCC2)cc1-c1ccccc1C)C(=O)O [Example 908]

# The remaining lines, values behind:
row,SMILES,% inhibition at 1 × 10^-6 M [%]
1,CSCC[C@H](NC(=O)c1ccc(CNc2ccc(N3CCCCC3)cc2)cc1-c1ccccc1C)C(=O)O [Example 862],95
2,CSCC[C@H](NC(=O)c1ccc(CN2CCN(c3ccccc3)CC2)cc1-c1ccccc1C)C(=O)O [Example 867],71
3,CSCC[C@H](NC(=O)c1ccc(CN(C(=O)OC(C)(C)C)C(CC2CCCCC2)CC2CCCCC2)cc1-c1ccccc1C)C(=O)O [Example 886],35
4,CSCC[C@H](NC(=O)c1ccc(NC(=O)OCc2cncs2)cc1-c1ccccc1C)C(=O)O [Example 902],85
5,CSCC[C@H](NC(=O)c1ccc(CN(C(=O)c2ccccc2)C(CC2CCCCC2)CC2CCCCC2)cc1-c1ccccc1C)C(=O)O [Example 910],42

# Same assay, conditions: Table 3; 1 × 10^-7 M
row,% inhibition at 1 × 10^-7 M [%],SMILES
1,65,CSCC[C@H](NC(=O)c1ccc(/C=C/c2ccc(Oc3cccc([N+](=O)[O-])c3)cc2)cc1-c1ccccc1C)C(=O)O [Example 861]
2,72,CSCC[C@H](NC(=O)c1ccc(CNc2ccc(N3CCOCC3)cc2)cc1-c1ccccc1C)C(=O)O [Example 863]
3,84,CSCC[C@H](NC(=O)c1ccc(CNc2ccc(Oc3ccccc3)cc2)cc1-c1ccccc1C)C(=O)O [Example 864]
4,88,CCSC[C@H](CC(C)C)N(C)Cc1ccc(C(=O)N[C@@H](CCSC)C(=O)O)c(-c2ccccc2C)c1 [Example 906]

# Same assay, conditions: Table 4; 1 × 10^-8 M
row,% inhibition at 1 × 10^-8 M [%],SMILES
1,68,CSCC[C@H](NC(=O)c1ccc(CN(Cc2cncs2)S(=O)(=O)c2ccc(C)cc2)cc1-c1ccccc1C)C(=O)O [Example 877]
2,95,CSCC[C@H](NC(=O)c1ccc(CN(CCC2CCCCC2)C2CC2)cc1-c1ccccc1C)C(=O)O [Example 880]
3,69,CSCC[C@H](NC(=O)c1ccc(CN(Cc2cncs2)C2CCSCC2)cc1-c1ccccc1C)C(=O)O [Example 881]
4,86,CCSC[C@H](CC(C)C)NCc1ccc(C(=O)N[C@@H](CCSC)C(=O)O)c(-c2ccccc2C)c1 [Example 905]
5,79,CSCC[C@H](NC(=O)c1ccc(CN(C)C(CC2CCCCC2)CC2CCCCC2)cc1-c1ccccc1C)C(=O)O [Example 907]
6,79,CSCC[C@H](NC(=O)c1ccc(CN(C(C)=O)C(CC2CCCCC2)CC2CCCCC2)cc1-c1ccccc1C)C(=O)O [Example 909]

# The next lines start with the compound.
row,SMILES,% inhibition at 1 × 10^-8 M [%]
1,CSCC[C@H](NC(=O)c1ccc(CCc2ccc(Oc3ccc(Cl)cc3)cc2)cc1-c1ccccc1C)C(=O)O [Example 860],85
2,CSCC[C@H](NC(=O)c1ccc(CN[C@@H](CC2CCCCC2)C(=O)N2CCCCC2)cc1-c1ccccc1C)C(=O)O [Example 887],92
3,CSCC[C@H](NC(=O)c1ccc(CON=C(Cc2ccccc2)Cc2ccccc2)cc1-c1ccccc1C)C(=O)O [Example 888],86

# Same assay, conditions: read-out: % inhibition at 1 × 10^-6 M
row,SMILES,inhibition at 1 µM [%]
1,"CSCC[C@H](NC(=O)c1ccc(COCc2ccc(-c3ccc(F)cc3)o2)cc1-c1cccc2ccccc12)C(=O)O [Example 868, N-[4-(5-(4-fluorophenyl)furan-2-ylmethoxymethyl)-2-naphth-1-ylbenzoyl]methionine lithium salt]",89
2,"CSCC[C@H](NC(=O)c1ccc(OCCCc2ccccc2)cc1-c1ccccc1C)C(=O)O [Example 879, N-[4-(3-phenylpropoxy)-2-(2-methylphenyl)benzoyl]methionine, lithium salt]",95

# Same assay, conditions: read-out: % inhibition at 1 × 10^-6 M; Table 2; 1 × 10^-6 M
row,inhibition at 1 µM [%],SMILES
1,74,"CSCC[C@H](NC(=O)c1ccc(COCc2ccc(-c3ccc(F)cc3)o2)cc1-c1ccccc1C(F)(F)F)C(=O)O [Example 872, N-[4-(5-(4-fluorophenyl)furan-2-ylmethoxymethyl)-2-(2-trifluoromethylphenyl)benzoyl]methionine Lithium salt]"
2,95,"CSCC[C@H](NC(=O)c1ccc(COCC(CC2CCCCC2)CC2CCCCC2)cc1-c1ccccc1C)C(=O)O [Example 889, lithium salt]"

# Same assay, conditions: read-out: % inhibition at 1 × 10^-7 M
row,SMILES,inhibition at 0.1 µM [%]
1,"CSCC[C@H](NC(=O)c1ccc(COCc2ccc(-c3ccc(F)cc3)o2)cc1-c1ccc(F)cc1Cl)C(=O)O [Example 869, N-[4-(5-(4-fluorophenyl)furan-2-ylmethoxymethyl)-2-(2-chloro-4-fluorophenyl)benzoyl]methionine lithium salt]",92
2,"CSCC[C@H](NC(=O)c1ccc(COCc2cnco2)cc1-c1ccccc1C)C(=O)O [Example 891, N-[4-(oxazol-5-ylmethoxymethyl)-2-(2-methylphenyl)benzoyl]methionine lithium salt]",94
3,"CSCC[C@H](NC(=O)c1ccc(COCc2cnc(-c3cccc(Cl)c3)o2)cc1-c1ccccc1C)C(=O)O [Example 893, N-[4-(2-(3-chlorophenyl)oxazol-5-ylmethoxymethyl)-2-(2-methylphenyl)benzoyl]methionine lithium salt]",87
4,"CSCC[C@H](NC(=O)c1ccc(COCc2cnc(-c3ccc(Cl)cc3)o2)cc1-c1ccccc1C)C(=O)O [Example 894, N-[4-(2-(4-chlorophenyl)oxazol-5-ylmethoxymethyl)-2-(2-methylphenyl)benzoyl]methionine lithium salt]",89
5,"CSCC[C@H](NC(=O)c1ccc(COCc2cnc(C(C)(C)C)s2)cc1-c1ccccc1C)C(=O)O [Example 895, N-[4-(2-t-butylthiazol-5-ylmethoxymethyl)-2-(2-methylphenyl)benzoyl]methionine lithium salt]",92

# Same assay, conditions: read-out: % inhibition at 1 × 10^-7 M; Table 3; 1 × 10^-7 M
row,inhibition at 0.1 µM [%],SMILES
1,96,"COc1ncc(COCc2ccc(C(=O)N[C@@H](CCSC)C(=O)O)c(-c3ccccc3C)c2)s1 [Example 896, N-[4-(2-methoxythiazol-5-ylmethoxymethyl)-2-(2-methylphenylbenzoyl]methioninelithium salt]"
2,95,"CSCC[C@H](NC(=O)c1ccc(COCc2cnc(-c3ccc(F)cc3)s2)cc1-c1ccccc1C)C(=O)O [Example 900, N-[4-(2-(4-fluorophenylthiazol-5-ylmethoxymethyl)-2-(2-methylphenyl)benzoyl]methioninelithium salt]"

# Same assay, conditions: read-out: % inhibition at 1 × 10^-8 M
row,SMILES,inhibition at 0.01 µM [%]
1,"CSCC[C@H](NC(=O)c1ccc(COCc2cnc(-c3ccccc3Cl)o2)cc1-c1ccccc1C)C(=O)O [Example 892, N-[4-(2-(2-chlorophenyl)oxazol-5-ylmethoxymethyl)-2-(2-methylphenyl)benzoyl]methionine lithium salt]",59
2,"CSCC[C@H](NC(=O)c1ccc(COCc2cnc(-c3ccccc3Cl)s2)cc1-c1ccccc1C)C(=O)O [Example 897, N-[4-(2-(2-chlorophenyl)thiazol-5-ylmethoxymethyl)-2-(2-methylphenyl)benzoyl]methionine lithium salt]",76
3,"CSCC[C@H](NC(=O)c1ccc(COCc2cnc(-c3cccc(F)c3)s2)cc1-c1ccccc1C)C(=O)O [Example 898, N-[4-(2-(3-fluorophenyl)thiazol-5-ylmethoxymethyl)-2-(2-methylphenyl)benzoyl]methionine lithium salt]",82
4,"CSCC[C@H](NC(=O)c1ccc(COCc2cnc(-c3cccc(Cl)c3)s2)cc1-c1ccccc1C)C(=O)O [Example 899, N-[4-(2-(3-chlorophenyl)thiazol-5-ylmethoxymethyl)-2-(2-methylphenyl)benzoyl]methionine lithium salt]",88
5,"CSCC[C@H](NC(=O)c1ccc(COCc2cnc(-c3ccc(Cl)cc3)s2)cc1-c1ccccc1C)C(=O)O [Example 901, N-[4-(2-(4-chlorophenyl)thiazol-5-ylmethoxymethyl)-2-(2-methylphenyl)benzoyl]methionine lithium salt]",84
6,"CSCC[C@H](NC(=O)c1ccc(COCc2cc(-c3ccc(Cl)cc3)co2)cc1-c1ccccc1C)C(=O)O [Example 904, N-[4-(4-(4-chlorophenyl)furan-2-ylmethoxymethyl)-2-(2-methylphenyl)benzoyl]methionine lithium salt]",85

# Same assay, conditions: read-out: % inhibition at 1 × 10^-8 M; Table 4; 1 × 10^-8 M
row,inhibition at 0.01 µM [%],SMILES
1,79,"CSCC[C@H](NC(=O)c1ccc(CO[C@H](CSC)CC2CCCCC2)cc1-c1ccccc1C)C(=O)O [Example 882, N-[4-(3-Cyclohexyl-1-methylthiopropan-2-yl)oxymethyl-2-(2-methylphenyl)benzoyl]methionine lithium salt]"
2,91,"CSCC[C@H](NC(=O)c1ccc(CO[C@H](CSC(C)(C)C)CC2CCCCC2)cc1-c1ccccc1C)C(=O)O [Example 883, N-[4-(3-Cyclohexyl-1-t-butylthiopropan-2-yl)oxymethyl-2-(2-methylphenyl)benzoyl]methionine lithium salt]"

# More lines, now with the values behind:
row,SMILES,inhibition at 0.01 µM [%]
1,"CSCC[C@H](NC(=O)c1ccc(CO[C@H](CSc2ccccc2)CC2CCCCC2)cc1-c1ccccc1C)C(=O)O [Example 884, N-[4-(3-Cyclohexyl-1-phenylthiopropan-2-yl)oxymethyl-2-(2-methylphenyl)benzoyl]methionine lithium salt]",94
2,"CSCC[C@H](NC(=O)c1ccc(CO[C@@H](CC2CCCCC2)CN2CCOCC2)cc1-c1ccccc1C)C(=O)O [Example 885, N-[4-(3-Cyclohexyl-1-morpholin-4-ylpropan-2-yl)oxymethyl-2-(2-methylphenyl)benzoyl]methionine trifluoroacetate salt]",95
